This is an account of results in doi:10.1101/2024.08.19.608619, “Discovery of potent SARS-CoV-2 nsp3 macrodomain inhibitors uncovers lack of translation to cellular antiviral response” (bioRxiv, 2024).

Data set [1] is described as follows: Permeability Papp (AB) MDR1/MDCKII. The following applies: In vitro MDR1-MDCKII permeability; for papp_a_to_b_mean: A to B; for perc_recovery_a_to_b_mean: recovery A to B.
Data set [2] in a line: In vitro kinetic solubility. Particulars: In vitro kinetic solubility, ph 7.4.
A short description of data set [3]: LogD. Particulars: pH 7.4; In vitro LogD.
A short description of data set [4]: Hepatic microsomal stability, HLM. Format: in vitro ADME, human. The following applies: In vitro human liver microsomal stability; for perc_remaining_no_cofactor: no cofactor. (Liver microsomes are a subcellular fraction often used to study metabolism.)
The nature of data set [5]: Hepatic microsomal stability, MLM. Format: in vitro ADME.
The mark [6] stands for this setting: In vitro mouse liver microsomal stability.
[7] abbreviates: In vitro mouse liver microsomal stability; no cofactor.
Setting [8] is: In vitro mouse liver microsomal stability, no cofactor.

≈ marks a conversion by molar mass, not a printed value. Where only a bound is given, the exact number is not on record here.

In data set [1] (mean), `CNC(=O)c1cc2c(N[C@@H](c3ccc4c(c3)S(=O)(=O)CCC4)C(C)C)ncnc2[nH]1` [ASAP-0008685] had a papp_a_to_b_mean of 0.46 ×10⁻⁶ cm/s and a perc_recovery_a_to_b_mean of 104.0%. The compound further gave a solubility_mean in data set [2] of 369 µM (≈ 158 µg/mL). The logd in data set [3] is listed as 2.4. In data set [4], the clint came to 77.0 µL/min/mg, the perc_remaining was 25.0%, the t_half was found to be 21.7 min and the perc_remaining_no_cofactor was 101.0%. For the same compound, in data set [5] (setting [6]), the clint amounted to 46.0 µL/min/mg, the perc_remaining is 47.0% and the t_half is given as 36.5 min. In data set [5] (setting [7]), the perc_remaining_no_cofactor amounted to 100.0%.
In data set [1] (mean), `CC(C)[C@H](Nc1ncnc2[nH]cc(C(=O)NC3CC3)c12)c1ccc2c(c1)S(=O)(=O)CCC2` (racemic) [ASAP-0008647] gave a papp_a_to_b_mean of 2.46 ×10⁻⁶ cm/s and a perc_recovery_a_to_b_mean of 73.4%. In data set [2], this compound came in with a solubility_mean of 257 µM (≈ 117 µg/mL). Moreover, the logd in data set [3] turned out to be 3.1. Further, in data set [4], the clint was determined as 29.0 µL/min/mg, the perc_remaining amounted to 57.0%, the t_half is on record as 57.0 min and the perc_remaining_no_cofactor worked out at 90.0%. Besides, in data set [5] (setting [6]), the clint was 234.0 µL/min/mg, the perc_remaining came out at 2.0% and the t_half was 7.2 min. Besides, the perc_remaining_no_cofactor in data set [5] (setting [8]) turned out to be 101.0%.
Take `CC(C(=O)O)C(NC(=O)c1ncnc2[nH]ccc12)c1ccc(Br)cc1` (mixture of isomers) [ASAP-0008445]: in data set [1] (mean), the papp_a_to_b_mean is 1.4 ×10⁻⁶ cm/s and the perc_recovery_a_to_b_mean is on record as 93.4%. The solubility_mean in data set [2] is 386 µM. The compound also registered a logd in data set [3] of 0.5. Also, in data set [4], the clint is 5.0 µL/min/mg, the perc_remaining stood at 103.0%, the t_half is on record as 338.5 min and the perc_remaining_no_cofactor is reported as 110.0%. In data set [5] (setting [6]), the clint is 4.0 µL/min/mg, the perc_remaining stood at 94.0% and the t_half was 433.2 min. Further, the perc_remaining_no_cofactor in data set [5] (setting [8]) was 109.0%.
In the case of `COc1ccc(C(NC(=O)c2ncnc3[nH]ccc23)C(C)c2nnn[nH]2)cc1` (mixture of isomers) [ASAP-0010744], in data set [1] (no inhibitor), the papp_a_to_b_mean was determined as 1.13 ×10⁻⁶ cm/s and the perc_recovery_a_to_b_mean is recorded as 93.6%. This compound gave a solubility_mean in data set [2] of no less than 400 µM. Further, in data set [3], the logd is 0.0. Moreover, in data set [4], the clint was 2.0 µL/min/mg, the perc_remaining turned out to be 92.0%, the t_half is reported as 798.7 min and the perc_remaining_no_cofactor was 103.0%. Further, in data set [5] (setting [6]), the clint came to 1.0 µL/min/mg, the perc_remaining was determined as 99.0% and the t_half came out at 2882.2 min. The perc_remaining_no_cofactor in data set [5] (setting [8]) is recorded as 92.0%.
On to `CC(C)[C@@H](Nc1ncnc2[nH]c(-c3cnn(CC(N)=O)c3)cc12)c1ccc2c(n1)OCCO2` [ASAP-0008646], for which, in data set [1] (mean), the papp_a_to_b_mean was 2.46 ×10⁻⁶ cm/s and the perc_recovery_a_to_b_mean came out at 73.0%. In data set [2], this compound displayed a solubility_mean of 385 µM (≈ 173 µg/mL). The compound further showed a logd in data set [3] of 2.4. In data set [4], the clint was 14.0 µL/min/mg, the perc_remaining came out at 77.0%, the t_half is reported as 120.2 min and the perc_remaining_no_cofactor is reported as 95.0%. Moreover, in data set [5] (setting [6]), the clint was found to be 12.0 µL/min/mg, the perc_remaining stood at 83.0% and the t_half is given as 145.2 min. The perc_remaining_no_cofactor in data set [5] (setting [8]) is given as 104.0%.
In data set [1] (mean), `CNCc1cc(-c2cc3c(N[C@@H](c4ccc5c(c4)S(=O)(=O)CCC5)C(C)C)ncnc3[nH]2)co1` [ASAP-0010745] yielded a papp_a_to_b_mean of 1.61 ×10⁻⁶ cm/s and a perc_recovery_a_to_b_mean of 90.5%. For the same compound, the solubility_mean in data set [2] came to 321 µM (≈ 154 µg/mL). The logd in data set [3] turned out to be 2.1. Moreover, in data set [4], the clint is 57.0 µL/min/mg, the perc_remaining turned out to be 40.0%, the t_half came to 29.4 min and the perc_remaining_no_cofactor is 110.0%. In data set [5] (setting [6]), the clint amounted to 52.0 µL/min/mg, the perc_remaining is listed as 41.0% and the t_half was 32.2 min. Also, the perc_remaining_no_cofactor in data set [5] (setting [7]) was found to be 108.0%.
In data set [1] (mean), `CC(C)[C@H](Nc1ncnc2[nH]cc(C(N)=O)c12)c1ccc2c(c1)OCCO2` (racemic) [ASAP-0008399] returned a papp_a_to_b_mean of 11.1 ×10⁻⁶ cm/s and a perc_recovery_a_to_b_mean of 90.0%. Besides, in data set [2], the solubility_mean came out at 375 µM (≈ 138 µg/mL). Moreover, the logd in data set [3] came out at 3.2. Also, in data set [4], the clint turned out to be 143.0 µL/min/mg, the perc_remaining came to 9.0%, the t_half was 11.7 min and the perc_remaining_no_cofactor is listed as 110.0%. In data set [5] (setting [6]), the clint came to 142.0 µL/min/mg, the perc_remaining is 9.0% and the t_half is 11.7 min. Besides, in data set [5] (setting [8]), the perc_remaining_no_cofactor worked out at 98.0%.
In data set [1] (no inhibitor), `CC(C)[C@H](Nc1ncnc2[nH]c(-c3cnn(CC(N)=O)c3)cc12)c1ccc2c(n1)OCCO2` [ASAP-0012307] registered a papp_a_to_b_mean of 1.27 ×10⁻⁶ cm/s and a perc_recovery_a_to_b_mean of 100.0%. The solubility_mean in data set [2] stood at 377 µM (≈ 169 µg/mL). Moreover, the logd in data set [3] turned out to be 2.3. In data set [4], the clint amounted to 12.0 µL/min/mg, the perc_remaining was found to be 85.0%, the t_half is listed as 134.5 min and the perc_remaining_no_cofactor is reported as 90.0%. Moreover, in data set [5] (setting [6]), the clint was found to be 5.0 µL/min/mg, the perc_remaining was 99.0% and the t_half came out at 359.1 min. The perc_remaining_no_cofactor in data set [5] (setting [8]) worked out at 110.0%.
Regarding `CC(C)[C@H](Nc1ncnc2[nH]c(C(=O)N[C@@H]3CCN(C)C3)cc12)c1ccc2c(c1)S(=O)(=O)CCC2` [ASAP-0011196], in data set [1] (no inhibitor), the papp_a_to_b_mean came to 0.707 ×10⁻⁶ cm/s and the perc_recovery_a_to_b_mean amounted to 103.0%. For the same compound, in data set [2], the solubility_mean amounted to 366 µM (≈ 182 µg/mL). For the same compound, the logd in data set [3] was found to be 1.4. Also, in data set [4], the clint was 3.0 µL/min/mg, the perc_remaining was found to be 98.0%, the t_half came out at 626.9 min and the perc_remaining_no_cofactor was 100.0%. Besides, in data set [5] (setting [6]), the clint came to 3.0 µL/min/mg, the perc_remaining is 104.0% and the t_half is 648.8 min. In addition, the perc_remaining_no_cofactor in data set [5] (setting [8]) amounted to 107.0%.
In the case of `CC(C)[C@H](Nc1ncnc2[nH]c(-c3cnn(CC(N)=O)c3)cc12)c1ccc2c(c1)OCCO2` [ASAP-0008449], in data set [1] (no inhibitor), the papp_a_to_b_mean was 1.09 ×10⁻⁶ cm/s and the perc_recovery_a_to_b_mean stood at 87.8%. Moreover, in data set [2], the solubility_mean was 280 µM (≈ 125 µg/mL). Moreover, in data set [3], the logd is on record as 2.9. For the same compound, in data set [4], the clint amounted to 47.0 µL/min/mg, the perc_remaining was found to be 43.0%, the t_half turned out to be 35.4 min and the perc_remaining_no_cofactor worked out at 102.0%. In data set [5] (setting [6]), the clint is 16.0 µL/min/mg, the perc_remaining came out at 80.0% and the t_half came to 103.7 min. In data set [5] (setting [8]), the perc_remaining_no_cofactor is given as 104.0%.
In data set [1] (no inhibitor), `CC(C)[C@H](Nc1ncnc2[nH]c(-c3cnn(C)c3C#N)cc12)c1ccc2c(c1)NC(=O)CO2` (single isomer, unassigned) [ASAP-0013256] registered a papp_a_to_b_mean of 2.35 ×10⁻⁶ cm/s and a perc_recovery_a_to_b_mean of 78.9%. The compound further showed a solubility_mean in data set [2] of 19 µM (≈ 8.41 µg/mL). The compound further registered a logd in data set [3] of 3.4. Moreover, in data set [4], the clint came out at 52.0 µL/min/mg, the perc_remaining is reported as 44.0%, the t_half was determined as 32.3 min and the perc_remaining_no_cofactor is 109.0%. In addition, in data set [5] (setting [6]), the clint came out at 147.0 µL/min/mg, the perc_remaining was determined as 10.0% and the t_half came out at 11.3 min. In data set [5] (setting [8]), the perc_remaining_no_cofactor worked out at 102.0%.
Take `CC(C)(C)[C@H](Nc1ncnc2[nH]c(-c3cnn(CC(N)=O)c3)cc12)c1ccc2c(n1)OCCO2` (racemic) [ASAP-0008648]: in data set [1] (mean), the papp_a_to_b_mean amounted to 0.822 ×10⁻⁶ cm/s and the perc_recovery_a_to_b_mean was found to be 88.8%. This compound also showed a solubility_mean in data set [2] of 48 µM (≈ 22.2 µg/mL). Further, in data set [3], the logd is on record as 2.7. Moreover, in data set [4], the clint came out at 36.0 µL/min/mg, the perc_remaining stood at 55.0%, the t_half stood at 46.0 min and the perc_remaining_no_cofactor is 96.0%. Further, in data set [5] (setting [6]), the clint came to 31.0 µL/min/mg, the perc_remaining amounted to 60.0% and the t_half was found to be 53.1 min. The perc_remaining_no_cofactor in data set [5] (setting [8]) is 90.0%.
With `CC(C)[C@H](CO)Nc1ncnc2[nH]ccc12` [ASAP-0000453], in data set [1] (mean), the papp_a_to_b_mean amounted to 13.1 ×10⁻⁶ cm/s and the perc_recovery_a_to_b_mean is listed as 89.0%. In data set [2], this compound gave a solubility_mean of no less than 400 µM. In data set [3], this compound gave a logd of 1.69. In addition, in data set [4], the clint was found to be 6.0 µL/min/mg, the perc_remaining came out at 119.0%, the t_half was determined as 289.0 min and the perc_remaining_no_cofactor came out at 99.0%. In addition, in data set [5] (setting [6]), the clint turned out to be 10.0 µL/min/mg, the perc_remaining stood at 90.0% and the t_half is 171.1 min. In addition, the perc_remaining_no_cofactor in data set [5] (setting [7]) came to 93.0%.
